The source of these data is patent US7405228B2, “Antibacterial cyano-(substituted)-methylenepiperidinophenyl oxazolidinones targeting multiple ribonucleoprotein sites” (Wockhardt Limited, priority 2002, dated 2008).

Take `N#CC=C1CCN(c2ccc(N3C[C@H](CNC(=O)CBr)OC3=O)cc2F)CC1` [Example 34, (S)-N-{3-[4-(4-cyanomethylidene-piperidin-1-yl)-3-fluorophenyl]-2-oxo-oxazolidin-5-ylmethyl}-bromoacetamide]: the melting point was in the range of 160 to 162 °C.

Take `N#CC=C1CCN(c2ccc(N3C[C@H](CNC(=O)CI)OC3=O)cc2F)CC1` [Example 36, (S)-N-{3-[4-(4-cyanomethylidene-piperidin-1-yl)-3-fluorophenyl]-2-oxo-oxazolidin-5-ylmethyl}-iodoacetamide]: the melting point was in the range of 178 to 180 °C.

Turning to `C[C@H](N)C(=O)NC[C@H]1CN(c2ccc(N3CCC(=CC#N)CC3)c(F)c2)C(=O)O1` [Example 41, (2S, 5S)-{N-{3-[4-(4-cyanomethylidene-piperidin-1-yl)-3-fluorophenyl]-2-oxo-oxazolidin-5-ylmethyl}-propionamid-2-yl}-amine], the melting point was 103 to 105 °C.

`N#CC=C1CCN(c2ccc(N3C[C@H](CNC(=O)C(N)CO)OC3=O)cc2F)CC1` (stereo partly drawn) [Example 42, (2S, 5S)-{N-{3-[4-(4-cyanomethylidene-piperidin-1-yl)-3-fluorophenyl]-2-oxo-oxazolidin-5-ylmethyl}-3-hydroxypropionamid-2-yl}-amine] gave a melting point of 88 to 90 °C. `N#CC=C1CCN(c2ccc(N3C[C@H](CNC(=O)[C@@H](N)Cc4c[nH]cn4)OC3=O)cc2F)CC1` [Example 43, (2S, 5S){N-{3-[4-(4-cyanomethylidene-piperidin-1-yl)-3-fluorophenyl]-2-oxo-oxazolidin-5-ylmethyl}-3-(imidazol-4-yl)-propionamid-2-yl}-amine] yielded a melting point of 93 to 96 °C.

Compound `N#CC=C1CCN(c2ccc(N3C[C@H](CN4C(=O)c5ccccc5C4=O)OC3=O)cc2F)CC1` [Example 44, (S)-N-{3-[4-(4-cyanomethylidene-piperidin-1-yl)-3-fluorophenyl]-2-oxo-oxazolidin-5-ylmethyl}-1-pthalamide] gave a melting point of 183 to 185 °C. Compound `N#CC=C1CCN(c2ccc(N3C[C@H](CNC(=S)NCCO)OC3=O)cc2F)CC1` [Example 48, (S)-N-{3-[4-(4-cyanomethylidene-piperidin-1-yl)-3-fluorophenyl]-2-oxo-oxazolidin-5-ylmethyl}-2-hydroxyethylthiocarbamide] had a melting point of 168 to 170 °C. As for `N#CC=C1CCN(c2ccc(N3C[C@H](CNC(=S)CN)OC3=O)cc2F)CC1` [Example 49, (S)-N-{3-[4-(4-cyanomethylidene-piperidin-1-yl)-3-fluorophenyl]-2-oxo-oxazolidin-5-ylmethylamino}-thiocarbonylmethylamine], the melting point fell in the range of 157 to 158 °C.

As for `CNC(=S)NC[C@H]1CN(c2ccc(N3CCC(=CC#N)CC3)c(F)c2)C(=O)O1` [Example 52, (S)-N-{3-[4-(4-cyanomethylidene-piperidin-1-yl)-3-fluorophenyl]-2-oxo-oxazolidin-5-ylmethyl}-methylthiocarbamide], the melting point is 191 to 192 °C. In the case of `CS(=O)(=O)OC[C@H]1CN(c2ccc(N3CCC(=CC#N)CC3)c(F)c2)C(=O)O1` [Example 54, (R)-{3-[4-(4-cyanomethylidene-piperidin-1-yl)-3-fluorophenyl]-2-oxo-oxazolidin-5-ylmethyl}-methanesulphonate], the melting point fell in the range of 126 to 128 °C. As to `CC(C)COC(=O)NC[C@H]1CN(c2ccc(N3CC/C(=C\C#N)C(F)C3)c(F)c2)C(=O)O1` (stereo partly drawn) [Example 58, (S)-N-{3-[4-(4-cyanomethylidene-3-fluoropiperidin-1-yl)-3-fluorophenyl]-2-oxo-oxazolidin-5-ylmethyl}-isobutylcarbamate], the melting point fell in the range of 162 to 164 °C. `CS(=O)(=O)OC[C@H]1CN(c2ccc(N3CC/C(=C\C#N)C(F)C3)c(F)c2)C(=O)O1` (stereo partly drawn) [Example 59, (R)-{3-[4-(4-cyanomethylidene-3-fluoropiperidin-1-yl)-3-fluorophenyl]-2-oxo-oxazolidin-5-ylmethyl}-methanesulphonate] showed a melting point of 116 to 118 °C. The compound `CC1CN(c2ccc(N3C[C@H](CNC=O)OC3=O)cc2F)CC/C1=C\C#N` (stereo partly drawn) [Example 62, (S)-N-{3-[4-(4-cyanomethylidene-3-methylpiperidin-1-yl)-3-fluorophenyl]-2-oxo-oxazolidin-5-ylmethyl}-formamide] registered a melting point of 98 to 100 °C. `CC(=O)NC[C@H]1CN(c2ccc(N3CC/C(=C\C#N)C(C)C3)c(F)c2)C(=O)O1` (stereo partly drawn) [Example 63, (S)-N-{3-[4-(4-cyanomethylidene-3-methylpiperidin-1-yl)-3-fluorophenyl]-2-oxo-oxazolidin-5-ylmethyl}-acetamide] displayed a melting point of 152 to 153 °C. In turn, `CC1CN(c2ccc(N3C[C@H](CNC(=O)CC#N)OC3=O)cc2F)CC/C1=C\C#N` (stereo partly drawn) [Example 65, (S)-N-{3-[4-(4-cyanomethylidene-3-methylpiperidin-1-yl)-3-fluorophenyl]-2-oxo-oxazolidin-5-ylmethyl}-2-cyanoacetamide] had a melting point of 102 to 104 °C.

As to `CC1CN(c2ccc(N3C[C@H](CNc4nccs4)OC3=O)cc2F)CC/C1=C\C#N` (stereo partly drawn) [Example 66, (S)-2-{3-[4-(4-cyanomethylidene-3-methylpiperidin-1-yl)-3-fluorophenyl]-2-oxo-oxazolidin-5-ylmethylamino}-1,3-thiazole], the melting point lay within 75 to 77 °C. Take `CC(=O)NC[C@H]1CN(c2ccc(N3CC/C(=C/C#N)C(C)(C)C3)c(F)c2)C(=O)O1` [Example 70, (S)-N-{3-[4-(4-cyanomethylidene-3,3-dimethylpiperidin-1-yl)-3-fluorophenyl]-2-oxo-oxazolidin-5-ylmethyl}-acetamide]: the melting point fell in the range of 150 to 152 °C. Compound `CC(=O)NC[C@H]1CN(c2ccc(N3CCC(=C(C)C#N)CC3)cc2)C(=O)O1` [Example 72, (S)-N-{3-[4-(4-(1-cyanoethylidene)-piperidin-1-yl)-phenyl]-2-oxo-oxazolidin-5-ylmethyl}-acetamide] registered a melting point of 94 to 96 °C. In the case of `CC(C#N)=C1CCN(c2ccc(N3C[C@H](CNC=O)OC3=O)cc2F)CC1` [Example 73, (S)-N-{3-[4-(4-(1-cyanoethylidene)-piperidin-1-yl)-3-fluorophenyl]-2-oxo-oxazolidin-5-ylmethyl}-formamide], the melting point lay within 188 to 190 °C. Under `CC(C#N)=C1CCN(c2ccc(N3C[C@H](CNC(=O)CC#N)OC3=O)cc2F)CC1` [Example 75, (S)-N-{3-[4-(4-(1-cyanoethylidene)-piperidin-1-yl)-3-fluorophenyl]-2-oxo-oxazolidin-5-ylmethyl}-2-cyanoacetamide] stands 194 to 196 °C; under `CC(C#N)=C1CCN(c2ccc(N3C[C@H](CNC(=O)CN)OC3=O)cc2F)CC1` [Example 76, (S)-N-{3-[4-(4-(1-cyanoethylidene)-piperidin-1-yl)-3-fluorophenyl]-2-oxo-oxazolidin-5-ylmethylamino}-carboxymethylamine], 141 to 142 °C. Compound `CC(C#N)=C1CCN(c2ccc(N3C[C@H](CNC(=O)C(Cl)(Cl)Cl)OC3=O)cc2F)CC1` [Example 80, (S)-N-{3-[4-(4-(1-cyanoethylidene)-piperidin-1-yl)-3-fluorophenyl]-2-oxo-oxazolidin-5-ylmethyl}-trichloroacetamide] showed a melting point of 166 to 168 °C.

In turn, `CC(C#N)=C1CCN(c2ccc(N3C[C@H](CNC(=O)OCC(C)C)OC3=O)cc2F)CC1` [Example 81, (S)-N-{3-[4-(4-(1-cyanoethylidene)-piperidin-1-yl)-3-fluorophenyl]-2-oxo-oxazolidin-5-ylmethyl}-isobutylcarbamate] returned a melting point of 158 to 160 °C.

Take `CC(C#N)=C1CCN(c2ccc(N3C[C@H](CO)OC3=O)cc2F)CC1` [Example 82, (R)-{3-[4-(4-(1-cyanoethylidene)-piperidin-1-yl)-3-fluorophenyl]-2-oxo-oxazolidin-5-ylmethyl}-alcohol]: the melting point lay within 100 to 102 °C. As for `CC(C#N)=C1CCN(c2ccc(N3C[C@H](COc4ccon4)OC3=O)cc2F)CC1` [Example 83, (R)-3-{3-[4-(4-(1-cyanoethylidene)-piperidin-1-yl)-3-fluorophenyl]-2-oxo-oxazolidin-5-ylmethyloxy}-iso-oxazole], the melting point fell in the range of 137 to 138 °C. `CC(=O)NC[C@H]1CN(c2ccc(N3CC/C(=C(/C)C#N)C(F)C3)c(F)c2)C(=O)O1` (stereo partly drawn) [Example 85, (S)-N-{3-[4-(4-(1-cyanoethylidene)-3-fluoropiperidin-1-yl)-3-fluorophenyl]-2-oxo-oxazolidin-5-ylmethyl}-acetamide] showed a melting point of 148 to 150 °C.

Regarding `CC(=O)NC[C@H]1CN(c2ccc(N3CC/C(=C(\C)C#N)C(F)C3)c(F)c2)C(=O)O1` (stereo partly drawn) [Example 87, Z-(S)-N-{3-[4-(4-(1-cyanoethylidene)-3-fluoropiperidin-1-yl)-3-fluorophenyl]-2-oxo-oxazolidin-5-ylmethyl}-acetamide], the melting point lay within 148 to 150 °C.

As for `CCC(C#N)=C1CCN(c2ccc(N3C[C@H](CNC(=O)C(Cl)(Cl)Cl)OC3=O)cc2F)CC1` [Example 91, (S)-N-{3-[4-(4-(1-cyanopropylidene)-piperidin-1-yl)-3-fluorophenyl]-2-oxo-oxazolidin-5-ylmethyl}-trichloroacetamide], the melting point is 150 to 152 °C.

For the compound `CCC(C#N)=C1CCN(c2ccc(N3C[C@H](CNC(=O)CBr)OC3=O)cc2F)CC1` [Example 92, (S)-N-{3-[4-(4-(1-cyanopropylidene)-piperidin-1-yl)-3-fluorophenyl]-2-oxo-oxazolidin-5-ylmethyl}-bromoacetamide], the melting point lay within 200 to 203 °C.

In the case of `CC(=O)NC[C@H]1CN(c2ccc(N3CCC(=C(C#N)n4ccnc4)CC3)c(F)c2)C(=O)O1` [Example 102, (S)-N-{3-[4-(4-(1-cyano-1-(imidazol-1-yl)-methylidene)-piperidin-1-yl)-3-fluorophenyl]-2-oxo-oxazolidin-5-ylmethyl}-acetamide], the melting point fell in the range of 196 to 198 °C. `CC(=O)NC[C@H]1CN(c2ccc(N3CCC(=C(C#N)n4ccnc4C)CC3)c(F)c2)C(=O)O1` [Example 103, (S)-N-{3-[4-(4-(1-cyano-1-(2-methyl-imidazol-1-yl)-methylidene)-piperidin-1-yl)-3-fluorophenyl]-2-oxo-oxazolidin-5-ylmethyl}-acetamide] showed a melting point of 204 to 206 °C.
